Results reported in PubChem BioAssay (NCI).
Where “and” joins values, the source holds several entries; their conditions need not be identical. Equal entries are not always repeated.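 Briefly, cells in 96-well plates were exposed to five compound concentrations for 48 h, and endpoints were estimated by linear interpolation. Abbreviation: GI50, concentration required for 50% inhibition of growth. TGI: total growth inhibition.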

How the values were obtained:
Assay in all cases: NCI tumour cell line growth inhibition, 48 h
SNB-19 CNS = tested on: SNB-19 CNS
UACC-257 melanoma = tested on: UACC-257 melanoma
SK-OV-3 ovarian = tested on: SK-OV-3 ovarian
SR leukemia = tested on: SR leukemia
SK-MEL-5 melanoma = tested on: SK-MEL-5 melanoma
HCC-2998 colon = tested on: HCC-2998 colon
OVCAR-3 ovarian = tested on: OVCAR-3 ovarian
COLO 205 colon = tested on: COLO 205 colon
HCT-116 colon = tested on: HCT-116 colon
HOP-62 NSCLC = tested on: HOP-62 NSCLC

Row | Structure (SMILES) | TGI (SNB-19 CNS) [µM] | TGI (UACC-257 melanoma) [µM] | TGI (SK-OV-3 ovarian) [µM] | TGI (SR leukemia) | TGI (SK-MEL-5 melanoma) | TGI (HCC-2998 colon) [µM] | TGI (OVCAR-3 ovarian) [µM] | TGI (COLO 205 colon) [µM] | TGI (HCT-116 colon) [µM] | TGI (HOP-62 NSCLC) [µM] | GI50 (UACC-257 melanoma) | GI50 (SR leukemia) | GI50 (SK-MEL-5 melanoma)
1 | Cc1nc(SCC(N)=O)c2sc(=S)n(-c3ccccc3)c2n1 | > 10 | > 10 | > 10 | > 10 µM | > 10 µM | > 10 | > 10 | > 10 | > 10 | > 10 | – | – | –
2 | NCCCCNCCCNC(=O)CNC(=O)CC(O)C(N)CCCC(NC(=O)C(CN)NC(=O)C(O)CNC(=O)CC(N)c1ccc(O)cc1)C(=O)O (stereo not drawn) | > 10 | > 10 | > 10 | > 10 µM | > 10 µM | > 10 | > 10 | > 10 | > 10 | > 10 | – | – | –
3 | Cc1cc(S(=O)(=O)Nc2n[nH]c(Nc3ccccc3)n2)c(SCC(=O)O)cc1Cl | > 100 | > 100 | > 100 | > 100 µM | > 100 µM | > 100 | > 100 | > 100 | > 100 | > 100 | – | – | –
4 | S=c1[nH]nc(Cn2c3ccc(Br)cc3c3nc4ccccc4nc32)n1C1CCCCC1 | > 96.7 | > 100 | 83.7 | 60.6 µM | 49.1 µM | 61 | > 59.7 | > 59.8 | 40.2 | > 63.5 | – | – | –
5 | CCCCN1C(=O)CC2[C@@H]3CCc4cc(OC)ccc4C3CC[C@]2(C)C1=O (stereo partly drawn) | > 10 | > 10 | > 10 | > 10 µM | > 10 µM | > 10 | > 10 | > 10 | > 10 | > 10 | – | – | –
6 | COc1cc2c3cc1Oc1c(OC)c(OC)cc4c1C(Cc1ccc(O)c(c1)Oc1ccc(cc1)CC3N(C)CC2)CN(C)C4 (stereo not drawn) | 84.5 | 27.1 | 47.9 | 41.7 µM | 26.4 µM | 13.7 | 30.9 | 21.6 | 19 | 37.2 | – | – | –
7 | CC1CCc2sc3nc4n(c(=O)c3c2C1)CC(C)S4 (stereo not drawn) | 88.6 | 50.9 | 96.3 | > 100 µM | 34.4 µM | 42 | 36.7 | 39.3 | 67.7 | > 100 | – | – | –
8 | COc1cc2[nH]c(=O)c3cc(-c4ccccc4)cc4c(Cl)nc(c1OC)c2c43 | > 82.8 | 21.6 | > 73.9 | > 100 µM | 28 µM | > 86.4 | > 100 | 38.5 | 12.9 | > 72.7 | – | – | –
9 | O=C1/C(=C/c2ccncc2)C(n2cccc2)c2c(Br)sc(Br)c21 (stereo not drawn) | 30.6 | 5.03 | 20.7 | 9.51 µM | 27.6 µM | 3.45 | 3.38 | 28.6 | 10.4 | 11.3 | – | – | –
10 | Cn1nc2c(c1N)Cc1c(nn(C)c1N)-c1ccccc1-2 | > 100 | > 100 | > 100 | > 100 µM | > 100 µM | > 100 | > 100 | > 100 | > 100 | > 100 | – | – | –
11 | COc1ccc(C2Oc3c(OC)cc(CCCO)cc3C2CO)cc1OC (stereo not drawn) | > 100 | > 100 | > 100 | 55.5 µM and > 100 µM | > 100 µM and 31.1 µM | > 100 | > 100 | > 100 | > 100 | > 100 | 49.9 µM and 21.9 µM | 13.4 µM and > 100 µM | 36 µM and 12 µM
12 | CCOc1ccc(NCC2CC/C(=C\C=C\c3ccccc3)C2=O)cc1 (stereo not drawn) | 60.9 | 38.4 | > 100 | > 33.3 µM | 30.7 µM | > 72.4 | 34.4 | 31.7 | 20.4 | > 62 | – | – | –
13 | CC(=O)OCC(=O)O[C@@H]1[C@H]2[C@@H](OC(=O)c3ccccc3)[C@@H](C)C[C@]2(O)[C@H](OC(C)=O)[C@@]2(C)C[C@]1(OC(C)=O)C[C@H]1C(=O)C(C)(C)[C@@H](OC(C)=O)[C@@H]12 | > 25 | > 25 | > 25 | > 25 µM | > 25 µM | > 25 | > 25 | > 25 | > 25 | > 25 | – | – | –
14 | O=C(Sc1c(-c2ccccc2)c(=O)n(-c2ccccc2)c(=S)n1-c1ccccc1)c1ccco1 | > 100 | > 31.6 | > 100 | > 78.9 µM | > 100 µM | > 100 | > 100 | > 100 | > 100 | > 100 | – | – | –
15 | O=C1c2cccnc2S(=O)(=O)N1c1ccc([N+](=O)[O-])cc1 | > 100 | > 100 | > 100 | > 100 µM | > 100 µM | > 100 | > 100 | > 100 | > 100 | > 100 | – | – | –
16 | O=C(OC12CC3CC(CC(C3)C1)C2)c1ccc(NCc2cc(O)ccc2O)cc1 | 11.7 | 2.98 | 13.2 | 0.907 µM | 3.74 µM | 3.75 | 2.3 | 1.12 | 5.28 | 14.8 | – | – | –
17 | O=C(O)C1=NN(c2ccc(S(=O)(=O)O)cc2)C2(C1)C(Cl)C(=O)N2c1nc2ccccc2s1 (stereo not drawn) | 64.8 | 37.2 | 30.6 | 24.5 µM | 25.6 µM | 33.4 | 33.8 | 35.1 | 33.1 | 30.5 | – | – | –
18 | CCC(=O)Nc1ccc(NS(=O)(=O)c2ccc(Cl)cc2)cc1 | > 100 | > 100 | > 100 | > 100 µM | > 100 µM | > 100 | > 100 | > 100 | > 100 | > 100 | – | – | –
19 | CCN(CC)c1ccc(NC(=S)NN(C)C)cc1 | > 10 | > 10 | > 10 | > 10 µM | > 10 µM | > 10 | > 10 | > 10 | > 10 | > 10 | – | – | –
20 | N#Cc1nc(CCCN2C(=O)c3ccccc3C2=O)oc1N | > 100 | > 100 | > 100 | > 100 µM | > 100 µM | > 100 | > 100 | > 100 | > 100 | > 100 | – | – | –
21 | CC1(C)OC[C@@H](C[C@H](O)COCc2ccccc2)O1 | > 100 | > 100 | > 100 | > 100 µM | > 100 µM | > 100 | > 100 | > 100 | > 100 | > 100 | – | – | –
22 | O=C1CS/C(=N/N=C/c2cn(Cc3ccc(Cl)cc3Cl)c3ccccc23)N1 | > 100 | > 100 | > 100 | > 100 µM | > 100 µM | 92.3 | > 100 | > 100 | > 100 | > 100 | – | – | –
23 | COc1cc2c3c(cc(Cl)nc3c1OC)C(=O)C(=O)N2 | 42.6 | 21.9 | 33.3 | > 29.6 µM | 32.4 µM | 33.6 | 32.5 | 51 | 13.6 | 34.7 | – | – | –
24 | C=C(C)[C@H]1CC(=O)/C(C)=C\CC/C(C)=C/CC[C@@]2(C)O[C@@H]2C1 | > 100 | > 100 | 59 | > 100 µM | 45.5 µM | 93.1 | 43.9 | 32 | 32.8 | > 100 | – | – | –
25 | O=C(/C=C\Nc1ccccc1O)C(F)(F)F | > 100 | > 100 | > 100 | > 100 µM | 53.5 µM | > 100 | 87 | 71.1 | > 100 | > 100 | – | – | –
26 | Clc1cc(C(c2cc(Cl)sc2Cl)c2cc(Cl)sc2Cl)c(Cl)s1 | > 100 | > 100 | > 100 | > 100 µM | > 100 µM | > 100 | > 100 | > 100 | > 100 | > 100 | – | – | –
27 | CCOc1snc(C(Cl)(Cl)Cl)c1Cl | 74.9 | 33.9 | > 100 | 35.6 µM | 21.1 µM | 63.3 | 37.8 | 48.4 | 89.2 | > 100 | – | – | –
